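Method: 48-hour compound exposure of cells in 96-well plates, five concentrations, linear interpolation of endpoints. Abbreviation: GI50, concentration required for 50% inhibition of growth. Definition used: TGI = concentration required for complete inhibition of growth.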
How the values were obtained:
Assay in all cases: DTP human tumour cell line panel, 48 h
ACHN renal = system: ACHN renal
EKVX NSCLC = system: EKVX NSCLC
HS 578T breast = system: HS 578T breast
M14 melanoma = system: M14 melanoma
OVCAR-4 ovarian = system: OVCAR-4 ovarian
OVCAR-5 ovarian = system: OVCAR-5 ovarian
RXF 393 renal = system: RXF 393 renal
SK-MEL-5 melanoma = system: SK-MEL-5 melanoma
SN12C renal = system: SN12C renal
SR leukemia = system: SR leukemia

SMILES	GI50 (ACHN renal) [µM]	TGI (ACHN renal) [µM]	GI50 (EKVX NSCLC) [µM]	TGI (EKVX NSCLC) [µM]	GI50 (HS 578T breast) [µM]	TGI (HS 578T breast) [µM]	GI50 (M14 melanoma) [µM]	TGI (M14 melanoma) [µM]	GI50 (OVCAR-4 ovarian) [µM]	TGI (OVCAR-4 ovarian) [µM]	GI50 (OVCAR-5 ovarian) [µM]	TGI (OVCAR-5 ovarian) [µM]	GI50 (RXF 393 renal) [µM]	TGI (RXF 393 renal) [µM]	GI50 (SK-MEL-5 melanoma) [µM]	TGI (SK-MEL-5 melanoma) [µM]	GI50 (SN12C renal) [µM]	TGI (SN12C renal) [µM]	GI50 (SR leukemia) [µM]	TGI (SR leukemia) [µM]
O=C(/C=C\c1ccc(O)c(O)c1)c1ccccc1O	8.31	24	14.4	> 100	17.2	81.9	12.9	29.9	8.73	98.7	18	40.4	4.21	17.2	11.4	28.4	11.8	37.5	3.17	69.8
CS(=O)(=O)OCCN(CCOS(C)(=O)=O)c1ccc(C=Nc2ccc(-c3csc(COc4ccccc4)n3)cc2)cc1	–	2.32	–	16.5	–	> 53.1	–	28.1	–	49.1	–	12.6	–	1.85	–	23.9	–	18.7	–	15.5
O=C(O)/C=C\C(=O)Nc1ccc2c(c1)-c1ccccc1C2	–	> 100	–	> 100	–	> 100	–	> 100	–	> 100	–	> 100	–	> 100	–	> 100	–	> 100	–	> 100
COc1cc2cc(NCc3cccc(Cl)c3)nc(C)c2cc1OC	2.46	23.1	3.52	36.5	4.87	56.7	0.52	10.1	1.83	25.4	1.5	25.4	3.57	16.3	3.27	13.7	2.21	17.4	1.66	44.9

Reference: PubChem BioAssay (NCI)
